Test results from patent US20140357512A1, “HISTONE DEACETYLASE (HDAC) BIOMARKERS IN MULTIPLE MYELOMA” (priority 2013, published 2014).

Tested on: human myeloma cell line MM.1S
Test: CNP analysis: acetylated peptides in cytoplasm (C), soluble nuclear extract (N), insoluble nuclear pellet (P) of Compound B treated cells
Type: cell-based
Conditions: for change in quantity of acetylated peptide, C / fold change in quantity of acetylated peptide, C: cytoplasm (C), normalized to total (C+N+P); for C: change in quantity of acetylated peptide normalized to total (C+N+P) / C: fold change in quantity of acetylated peptide normalized to total (C+N+P): cytoplasm fraction; for P: change in quantity of acetylated peptide normalized to total (C+N+P) / P: fold change in quantity of acetylated peptide normalized to total (C+N+P): insoluble nuclear pellet; for N: change in quantity of acetylated peptide normalized to total (C+N+P) / N: fold change in quantity of acetylated peptide normalized to total (C+N+P): soluble nuclear extract
Description: This example describes the CNP analysis that was performed on Compound B treated cells from Example 1.
The SILAC method was performed as described in Example 1.
The harvested “heavy” and “light” labeled cells were initially lysed with 2×NETN buffer (200 mM NaCl, 100 mM Tris-Cl, 2 mM EDTA, 1.0% NP-40, pH 7.2) on ice for 15 min, respectively. The supernatants were saved after 20,000×g centrifugation for 10 minutes at 4° C. After measurement of the protein concentration in “heavy” or “light” labeled supernatants, equal amounts of crude proteins in supernatant were mixed, and the crude proteins were precipitated by adding trifluoroacetic acid (TFA) with 15% final concentration (v/v) (this was called the cytosolic fraction). After washing twice with −20° C. acetone, the proteins pellets were dissolved in 100 mM NH4HCO3 (pH 8.0) for trypsin digestion.
The remaining cell pellets were further lysed with 1×ETN buffer (100 mM NaCl, 50 mM Tris-Cl, 1 mM EDTA, pH 7.2) supplemented with 0.5% Triton X-100 on ice for 15 min, respectively. The resulting lysates were clarified by 20,000×g centrifugation for 10 minutes, and the supernatant was saved as nuclear extracts fractions. After measurement of the protein concentration in “heavy” or “light” labeled supernatant, equal amount of crude proteins in supernatant were mixed, and the crude proteins were precipitated by adding trifluoroacetic acid (TFA) with 15% final concentration (v/v) (this was called the nuclear extracts fraction). After washing twice with −20° C. acetone, the proteins pellets were dissolved in 100 mM NH4HCO3 (pH 8.0) for trypsin digestion.
The final remaining cell pellets were dissolved in 8 M urea to extract the chromatin-binding proteins. After measurement of protein concentration, equal amount of chromatin-binding proteins in urea solution were mixed, and the proteins were precipitated by adding trifluoroacetic acid (TFA) with 15% final concentration (v/v) (this was called the nuclear pellet fraction). After washing twice with −20° C. acetone, the proteins pellets were dissolved in 100 mM NH4HCO3 for trypsin digestion.
After trypsin digestion for the above three fractions, the Kac affinity enrichment followed by MS analysis and data inquiry were separately performed. The combined Kac data formed the total Kac profiling data in the pair of Compound B vs DMSO.
Compound B treated cell lysate was fractionated into three subcellular fractions—cytoplasm (C), soluble nuclear extract (N), and insoluble nuclear pellet (P), as described above. Any peptides identified as HDAC6 specific in Example 1 with this subcellular localization information was extremely helpful for understanding their functions inside cells.
The third, fourth, and fifth columns of Table 2 show data for Compound B. A “+” indicates a 1.3 fold change or greater in the quantity of peptide when normalized to the total (C+N+P=total) for each peptide for each drug treated group of cells. A “−” indicates a 1.29 fold change or less in the quantity of peptide when normalized to the total (C+N+P=total) for each peptide for each drug treated group of cells. “None” indicates unknown.
The sixth, seventh, and eighth columns of Table 2 show data for Compound B. The numbers in these columns represent the fold change in the quantity of peptide when normalized to the total (C+N+P=total) for each peptide for each drug treated group of cells. The numbers are in a log 2 scale so 1 represents a 2× change, 0 represents no change, and None represents unknown.

[1] = peptide AVLIDK(ac)DQSPK (SEQ ID NO: 577), gene HIBCH
[2] = peptide CSK(ac)LPSSTK(ac)SGWPR (SEQ ID NO: 711), gene PHF15
[3] = peptide DFGSFDK(ac)FK (SEQ ID NO: 709), gene SOD2
[4] = peptide INKALDK(ac)TK (SEQ ID NO: 802), gene MYH9
[5] = peptide K(ac)AINK(ac)AQK (SEQ ID NO: 793), gene HIST1H2BM
[6] = peptide KGEDFVK(ac)TLK (SEQ ID NO: 750), gene MDH2
[7] = peptide LENDK(ac)SFR (SEQ ID NO: 678), gene ECI1
[8] = peptide SELTGK(ac)FEK (SEQ ID NO: 778), gene ANXA5

With `O=C(NO)c1cnc(NC2(c3cccc(F)c3)CCCCC2)nc1` [Compound B, 2-((1-(3-fluorophenyl)cyclohexyl)amino)-N-hydroxypyrimidine-5-carboxamide] the “change in quantity of acetylated peptide, C” value [1] was “− (A “−” indicates a 1.29 fold change or less in the quantity of peptide when normalized to the total (C+N+P=total))”, the “fold change in quantity of acetylated peptide, C” value [1] was 0.00 log 2 and the “change in quantity of acetylated peptide, C” value (peptide FYK(ac)DVLEVGELAK (SEQ ID NO: 596), gene NAA50) was “− (A “−” indicates a 1.29 fold change or less in the quantity of peptide when normalized to the total (C+N+P=total))”. For the same compound, the “fold change in quantity of acetylated peptide, C” value (peptide FYK(ac)[…] (SEQ ID NO: 596), gene NAA50) was 0.12 log 2, the “fold change in quantity of acetylated peptide, C” value (peptide NCSSFLIK(ac)R (SEQ ID NO: 558), gene RPL28) was 0.05 log 2 and the “change in quantity of acetylated peptide, C” value (peptide VTCIDPNPNFEK(ac)FLIK (SEQ ID NO: 671), gene METTL7A) was “+ (A “+” indicates a 1.3 fold change or greater in the quantity of peptide when normalized to the total (C+N+P=total))”. For the same compound, the “fold change in quantity of acetylated peptide, C” value (peptide […](ac)FLIK (SEQ ID NO: 671), gene METTL7A) was 0.44 log 2, the “fold change in quantity of acetylated peptide, C” value (peptide […](ac)QNK (SEQ ID NO: 650), gene DLD) was 0.18 log 2 and the “C: change in quantity of acetylated peptide normalized to total (C+N+P)” value [2] was “− (A “−” indicates a 1.29 fold change or less in the quantity of peptide when normalized to the total (C+N+P=total))”. The “C: fold change in quantity of acetylated peptide normalized to total (C+N+P)” value [2] was 0.11 log 2 scale, the “P: change in quantity of acetylated peptide normalized to total (C+N+P)” value [2] was “+ (A “+” indicates a 1.3 fold change or greater in the quantity of peptide when normalized to the total (C+N+P=total))” and the “P: fold change in quantity of acetylated peptide normalized to total (C+N+P)” value [2] was 0.43 log 2 scale. For the same compound, the “N: change in quantity of acetylated peptide normalized to total (C+N+P)” value [2] was “− (A “−” indicates a 1.29 fold change or less in the quantity of peptide when normalized to the total (C+N+P=total))”, the “N: fold change in quantity of acetylated peptide normalized to total (C+N+P)” value [2] was 0.04 log 2 scale and the “C: change in quantity of acetylated peptide normalized to total (C+N+P)” value [3] was “− (A “−” indicates a 1.29 fold change or less in the quantity of peptide when normalized to the total (C+N+P=total))”. For the same compound, the “C: fold change in quantity of acetylated peptide normalized to total (C+N+P)” value [3] was −0.28 log 2 scale, the “P: change in quantity of acetylated peptide normalized to total (C+N+P)” value [3] was “− (A “−” indicates a 1.29 fold change or less in the quantity of peptide when normalized to the total (C+N+P=total))” and the “N: change in quantity of acetylated peptide normalized to total (C+N+P)” value [3] was “+ (A “+” indicates a 1.3 fold change or greater in the quantity of peptide when normalized to the total (C+N+P=total))”. For the same compound, the “N: fold change in quantity of acetylated peptide normalized to total (C+N+P)” value [3] was −0.48 log 2 scale, the “C: change in quantity of acetylated peptide normalized to total (C+N+P)” value [4] was “− (A “−” indicates a 1.29 fold change or less in the quantity of peptide when normalized to the total (C+N+P=total))” and the “P: change in quantity of acetylated peptide normalized to total (C+N+P)” value [4] was “− (A “−” indicates a 1.29 fold change or less in the quantity of peptide when normalized to the total (C+N+P=total))”. For the same compound, the “N: change in quantity of acetylated peptide normalized to total (C+N+P)” value [4] was “+ (A “+” indicates a 1.3 fold change or greater in the quantity of peptide when normalized to the total (C+N+P=total))”, the “N: fold change in quantity of acetylated peptide normalized to total (C+N+P)” value [4] was 4.75 log 2 scale and the “C: change in quantity of acetylated peptide normalized to total (C+N+P)” value [5] was “− (A “−” indicates a 1.29 fold change or less in the quantity of peptide when normalized to the total (C+N+P=total))”. For the same compound, the “P: change in quantity of acetylated peptide normalized to total (C+N+P)” value [5] was “− (A “−” indicates a 1.29 fold change or less in the quantity of peptide when normalized to the total (C+N+P=total))”, the “P: fold change in quantity of acetylated peptide normalized to total (C+N+P)” value [5] was 0.27 log 2 scale and the “N: change in quantity of acetylated peptide normalized to total (C+N+P)” value [5] was “+ (A “+” indicates a 1.3 fold change or greater in the quantity of peptide when normalized to the total (C+N+P=total))”. The “N: fold change in quantity of acetylated peptide normalized to total (C+N+P)” value [5] was −0.97 log 2 scale, the “C: change in quantity of acetylated peptide normalized to total (C+N+P)” value [6] was “− (A “−” indicates a 1.29 fold change or less in the quantity of peptide when normalized to the total (C+N+P=total))” and the “C: fold change in quantity of acetylated peptide normalized to total (C+N+P)” value [6] was 0.15 log 2 scale. For the same compound, the “P: change in quantity of acetylated peptide normalized to total (C+N+P)” value [6] was “− (A “−” indicates a 1.29 fold change or less in the quantity of peptide when normalized to the total (C+N+P=total))”, the “N: change in quantity of acetylated peptide normalized to total (C+N+P)” value [6] was “+ (A “+” indicates a 1.3 fold change or greater in the quantity of peptide when normalized to the total (C+N+P=total))” and the “N: fold change in quantity of acetylated peptide normalized to total (C+N+P)” value [6] was 0.49 log 2 scale. For the same compound, the “C: change in quantity of acetylated peptide normalized to total (C+N+P)” value [7] was “− (A “−” indicates a 1.29 fold change or less in the quantity of peptide when normalized to the total (C+N+P=total))”, the “C: fold change in quantity of acetylated peptide normalized to total (C+N+P)” value [7] was 0.12 log 2 scale and the “P: change in quantity of acetylated peptide normalized to total (C+N+P)” value [7] was “− (A “−” indicates a 1.29 fold change or less in the quantity of peptide when normalized to the total (C+N+P=total))”. The “N: change in quantity of acetylated peptide normalized to total (C+N+P)” value [7] was “+ (A “+” indicates a 1.3 fold change or greater in the quantity of peptide when normalized to the total (C+N+P=total))”, the “N: fold change in quantity of acetylated peptide normalized to total (C+N+P)” value [7] was −0.38 log 2 scale and the “C: change in quantity of acetylated peptide normalized to total (C+N+P)” value [8] was “− (A “−” indicates a 1.29 fold change or less in the quantity of peptide when normalized to the total (C+N+P=total))”. For the same compound, the “C: fold change in quantity of acetylated peptide normalized to total (C+N+P)” value [8] was 0.31 log 2 scale, the “P: change in quantity of acetylated peptide normalized to total (C+N+P)” value [8] was “− (A “−” indicates a 1.29 fold change or less in the quantity of peptide when normalized to the total (C+N+P=total))” and the “N: change in quantity of acetylated peptide normalized to total (C+N+P)” value [8] was “+ (A “+” indicates a 1.3 fold change or greater in the quantity of peptide when normalized to the total (C+N+P=total))”. For the same compound, the “N: fold change in quantity of acetylated peptide normalized to total (C+N+P)” value [8] was 0.40 log 2 scale.
